# PMC12023779, “Characterization, thermostable mechanism, and molecular docking of a novel glucose-tolerant β-glucosidase/β-galactosidase from the GH1 family isolated from Rehai hot spring” (Frontiers in Microbiology, 2025)
# Key:
# [1] = tested on: T1, Y50Bg4; assay: glucose oxidase-peroxidase assay, Michaelis-Menten non-linear fit; assay type: biochemical, uncultured bacterium; settings: sodium citrate buffer pH 6.0, 60°C; 0-20 mg/mL substrate
# T1 construct: expressed in E. coli DH5alpha, Ni-NTA purified; primers encode MKIDGGLKC... at N-end and ...EIIKKYKE at C-end
# Description: glucose oxidase-peroxidase assay, Michaelis-Menten non-linear fit on Y50Bg4
# [2] = tested on: T1, Y50Bg4; assay: p-nitrophenol release at […] nm, Michaelis-Menten non-linear fit; assay type: biochemical, uncultured bacterium; settings: sodium citrate buffer pH 6.0, 60°C; 0-2 mM substrate
Km [1] [mg/mL],Km [2] [µM],Compound
4.69,,OC[C@H]1O[C@@H](O[C@H]2[C@H](O)[C@@H](O)C(O)O[C@@H]2CO)[C@H](O)[C@@H](O)[C@@H]1O (some centres unmarked) [cellobiose]
,530,O=[N+]([O-])c1ccc(O[C@@H]2O[C@H](CO)[C@@H](O)[C@H](O)[C@H]2O)cc1 [p-nitrophenyl-β-D-glucopyranoside]
